In patent publication US10961202B2, “Bis-benzimidazole compounds and methods of using the same” (THE SCRIPPS RESEARCH INSTITUTE, priority 2017, dated 2021):

test system: r(CUG)12-MBNL1 complex; experiment: Inhibition of the r(CUG)12-MBNL1 complex measured by TR-FRET; type: biochemical; conditions: Table L; 80 nM RNA, 60 nM MBNL1-His6

IC50 [µM]	Structure (SMILES)
6.9	CNCCNC(=O)c1ccc(-c2nc3cc(-c4ccc5[nH]c(-c6ccc(C(=O)NCCNC)cc6)nc5c4)ccc3[nH]2)cc1 [Compound 111, 4,4′-(1H,1′H-[5,5′-bibenzo[d]imidazole]-2,2′-diyl)bis(N-(2-(methylamino)ethyl)benzamide)]
54.4	N=C(N)Nc1ccc(-c2nc3cc(-c4ccc5[nH]c(-c6ccc(N)cc6)nc5c4)ccc3[nH]2)cc1 [Compound 167]
5	CN(C)CCCOC(=O)c1ccc2nc(-c3ccc(-c4nc5ccc(C(=O)OCCCN(C)C)cc5[nH]4)cc3)[nH]c2c1 [Compound 56]
> 200	O=C(NCCN1CCOCC1)c1ccc2nc(-c3ccc(-c4nc5ccc(C(=O)NCCN6CCOCC6)cc5[nH]4)cc3)[nH]c2c1 [Compound 42, 2,2′-(1,4-phenylene)bis(N-(2-morpholinoethyl)-1H-benzo[d]imidazole-6-carboxamide)]
48	N#Cc1ccc2nc(-c3ccc(-c4nc5ccc(C6=NCCN6)cc5[nH]4)cc3)[nH]c2c1 [Compound 13, 2-(4-(6-(4,5-dihydro-1H-imidazol-2-yl)-1H-benzo[d]imidazol-2-yl)phenyl)-1H-benzo[d]imidazole-6-carbonitrile]
> 200	Cn1c(-c2ccc(-c3nc4ccc(N)cc4n3C)cc2)nc2cc(N)ccc21 [Compound 84, 2-[4-(6-amino-1-methyl-1H-benzimidazol-2-yl)phenyl]-1-methyl-1H-benzimidazol-5-amine]

Structure (SMILES)	IC50 [µM]
CN(C)NC(=O)Nc1ccc2nc(-c3ccc(-c4nc5ccc(NC(=O)NN(C)C)cc5[nH]4)cc3)[nH]c2c1 [Compound 66, N,N′-(2,2′-(1,4-phenylene)bis(1H-benzo[d]imidazole-6,2-diyl))bis(2,2-dimethylhydrazinecarboxamide)]	> 200

same assay, conditions: Table M; 80 nM RNA, 60 nM MBNL1-His6

IC50 [µM]	Structure (SMILES)
17.3	NCCCOc1ccc(-c2nc3cc(-c4ccc5[nH]c(-c6ccc(OCCCN)cc6)nc5c4)ccc3[nH]2)cc1 [Compound 378]
6.8	CN(C)Cc1cn(-c2ccc3nc(-c4ccc(-c5nc6ccc(-n7cc(CN(C)C)nn7)cc6[nH]5)cc4)[nH]c3c2)nn1 [Compound 247]
29.2	CN(C)CCCN(CCCNC(=O)c1ccc(-c2nc3ccc(-c4ccc5nc(-c6ccc(C(=O)NCCN(C)C)cc6)[nH]c5c4)cc3[nH]2)cc1)C(=O)c1ccc(-c2nc3ccc(-c4ccc5nc(-c6ccc(C(=O)NCCN(C)C)cc6)[nH]c5c4)cc3[nH]2)cc1 [Compound 450]
> 200	CN(C)CCNC(=O)CSc1ccc2nc(-c3ccc(-c4nc5ccc(SCC(=O)NCCN(C)C)cc5[nH]4)cc3)[nH]c2c1 [Compound 285, N-[2-(dimethylamino)ethyl]-2-[[2-(4-[6-[([[2-(dimethylamino)ethyl]carbamoyl]methyl)sulfanyl]-1H-1,3-benzodiazol-2-yl]phenyl)-1H-1,3-benzodiazol-6-yl]sulfanyl]acetamide]
95.2	Cc1cc(-c2nc3ccc(OCCCN(C)C)cc3[nH]2)ccc1-c1nc2ccc(OCCCN(C)C)cc2[nH]1 [Compound 272]
8.6	CN(C)CCCOc1cc(F)cc2nc(-c3ccc(-c4nc5cc(F)cc(OCCCN(C)C)c5[nH]4)cc3)[nH]c12 [Compound 287]
13	C[C@@H](NC(=O)CNCCNC(=O)c1ccc(-c2nc3cc(-c4ccc5[nH]c(-c6ccc(C(=O)NCCN(C)C)cc6)nc5c4)ccc3[nH]2)cc1)C(=O)N[C@H](C)C(=O)N[C@H](C)C(=O)N[C@H](C)C(=O)N(CCNC(=O)c1ccc(-c2nc3cc(-c4ccc5[nH]c(-c6ccc(C(=O)NCCN(C)C)cc6)nc5c4)ccc3[nH]2)cc1)CC(N)=O (single isomer, unassigned) [Compound 444]
14	CN(C)CCNC(=O)c1ccc(-c2nc3ccc(-c4ccc5nc(-c6ccc(C(=O)NCCCN(C)CCCNC(=O)c7ccc(-c8nc9ccc(-c%10ccc%11nc(-c%12ccc(C(=O)NCCN(C)C)cc%12)[nH]c%11c%10)cc9[nH]8)cc7)cc6)[nH]c5c4)cc3[nH]2)cc1 [Compound 451]
4.85	CN(C)CCNC(=O)c1ccc(-c2nc3cc(-c4ccc5[nH]c(-c6ccc(C(=O)NCCCCCCNC(=O)c7ccc(-c8nc9cc(-c%10ccc%11[nH]c(-c%12ccc(C(=O)NCCN(C)C)cc%12)nc%11c%10)ccc9[nH]8)cc7)cc6)nc5c4)ccc3[nH]2)cc1 [Compound 419]
68.7	CN(C)C[C@H]1CC[C@H](COc2ccc3nc(-c4ccc(-c5nc6ccc(OC[C@H]7CC[C@H](CN(C)C)CC7)cc6[nH]5)cc4)[nH]c3c2)CC1 [Compound 218, 1,1′-((1r,1′r,4r,4′r)-(((1,4-phenylenebis(1H-benzo[d]imidazole-2,6-diyl))bis(oxy))bis(methylene))bis(cyclohexane-4,1-diyl))bis(N,N-dimethylmethanamine)]
18.4	COCCCOc1ccc(-c2nc3cc(-c4ccc5[nH]c(-c6ccc(C(=O)NCCN(C)C)cc6)nc5c4)ccc3[nH]2)cc1 [Compound 391]
12.8	CN1CC[C@@H](Oc2ccc(-c3nc4cc(-c5ccc6[nH]c(-c7ccc(O)cc7)nc6c5)ccc4[nH]3)cc2)C1 [Compound 374]
5.15	C[C@@H](C(=O)N(C)[C@@H](C)C(=O)N(C)[C@@H](C)C(=O)N(CCCCN(C)C(=O)c1ccc(-c2nc3cc(-c4ccc5[nH]c(-c6ccc(C(=O)NCCN(C)C)cc6)nc5c4)ccc3[nH]2)cc1)CC(N)=O)N(C)C(=O)c1ccc(-c2nc3cc(-c4ccc5[nH]c(-c6ccc(C(=O)NCCN(C)C)cc6)nc5c4)ccc3[nH]2)cc1 [Compound 415]
82.3	CN(C)CC(CN(C)C)Oc1ccc(-c2nc3cc(-c4ccc5[nH]c(-c6ccc(O)cc6)nc5c4)ccc3[nH]2)cc1 [Compound 370]
24.8	CN(C)CCCNC(=O)c1ccc2nc(-c3ccc(-c4nc5ccc(OCCCN(C)C)cc5[nH]4)cc3)[nH]c2c1 [Compound 239]
39	CN1CCC(COc2ccc3nc(-c4ccc(-c5nc6ccc(O)cc6[nH]5)cc4)[nH]c3c2)CC1 [Compound 194, 2-(4-(6-((1-methylpiperidin-4-yl)methoxy)-1H-benzo[d]imidazol-2-yl)phenyl)-1H-benzo[d]imidazol-6-ol]
7.04	CC(CCCNC(=O)c1ccc(-c2nc3ccc(-c4ccc5nc(-c6ccc(C(=O)NCCN(C)C)cc6)[nH]c5c4)cc3[nH]2)cc1)CNC(=O)c1ccc(-c2nc3ccc(-c4ccc5nc(-c6ccc(C(=O)NCCN(C)C)cc6)[nH]c5c4)cc3[nH]2)cc1 (stereo not shown) [Compound 426]
132	COCCn1c(-c2ccc(-c3nc4ccc(OCCCN(C)C)cc4[nH]3)cc2)nc2ccc(OCCCN(C)C)cc21 [Compound 330]
> 200	COc1c(-c2nc3ccc(SCCCN(C)C)cc3[nH]2)ccc(-c2nc3ccc(SCCCN(C)C)cc3[nH]2)c1OC [Compound 300, 3,3′-(((2,3-dimethoxy-1,4-phenylene)bis(1H-benzo[d]imidazole-2,6-diyl))bis(sulfanediyl))bis(N,N-dimethylpropan-1-amine)]
189	CN(C)CCOCCOc1ccc2nc(-c3ccc(-c4nc5ccc(OCCOCCN(C)C)cc5[nH]4)cc3)[nH]c2c1 [Compound 179, 2,2′-((((1,4-phenylenebis(1H-benzo[d]imidazole-2,6-diyl))bis(oxy))bis(ethane-2,1-diyl))bis(oxy))bis(N,N-dimethylethan-1-amine)]

Structure (SMILES)	IC50 [µM]
COc1c(-c2nc3ccc(OCCCN(C)C)cc3[nH]2)ccc(-c2nc3ccc(OCCCN(C)C)cc3[nH]2)c1OC [Compound 303, 3,3′-(((2,3-dimethoxy-1,4-phenylene)bis(1H-benzo[d]imidazole-2,6-diyl))bis(oxy))bis(N,N-dimethylpropan-1-amine)]	> 200
